Common to all, as to type: cell-based, canine
One assay relates to CF41.Mg cell line. The assay is described as follows: ATPlite proliferation assay. The note with it: Canis lupus familiaris, 72 h. The protocol: (§1) The different cancer cell lines were plated at the optimal number of cells per well in 90 μL of appropriate medium/well in flat-bottom microtitration 96-well plates. Plates were incubated at 37° C. for 24 hours before treatment in drug free culture medium. After a first dilution process, 10 μl of the test substances (single) were added on plate containing cells 24h after plating. Tumor cell lines were incubated for 72 h at 37° C. under 5% CO2 with 9 concentrations of each natural extract in 1:2 dilution steps. Top dose was 100 μg/ml for each plant extract and 1 μM for doxorubicin. Each concentration was tested in triplicates. Dilutions of each test substance as well as distribution to plates containing cells were performed manually. At least 2 independent experiments were performed for each plant extract. Control cells were treated with vehicles alone. […]
(§2) At the end of treatments, the cytotoxic activity of tested substances was evaluated by ATP-Lite assay (Ref. 6016949, Perkin-Elmer, and Batch 69-12172). […] This ATP level is quantified by the luminescence emitted by the firefly luciferase, through an ATP-dependent reaction. […] After, the plate was left for ten minutes in the dark and luminescence was measured as LV (Luminescence Value).

A further assay has as its system HMPOS. The assay is described as follows: ATPlite proliferation assay. The note with it: Canis lupus familiaris, 72 h. The protocol: as §1, §2
Chou-Tallalay CI corresponds to the combination indexes calculated using the appropriate algorithms. […]

For another assay, the system named is D17 cancer cell line. The assay is described as follows: MTT proliferation assay. The note with it: Canis lupus familiaris. The protocol:
(§3) Cells were plated at a density of 4×10^3 cells per well on 96-well tissue culture-treated flat bottom plates and incubated overnight in complete medium. Cells were treated the following day with DMSO control or extract using a twofold serial dilution for 8 final concentrations ranging from […] to 100 μg mL-1 for 48 h to assess all extracts for potential effectiveness at reducing cellular proliferation. To quantify cellular proliferation, MTT dye assays were performed by adding 30 μL of MTT dye (5 mg mL-1 in phosphate-buffered saline solution) to each well and incubating at 37° C. for 1 h. Media were then aspirated and the cells were solubilized in 200 μL of isopropanol. The optical density of each well was analyzed on a spectrophotometric plate reader (Epoch; Biotek, Winooski, Vt., USA) at a wavelength of 570 nm.
(§4) Synergy between extracts was examined using combinations of two extracts at six concentrations: 0.8, 1.7, 3.1, 6.3, 12.5, or 25 μg mL-1. The percent proliferating cells of control for each treatment was pooled from all experiments and is reported as mean f standard error of the mean.
(§5) Raw data from proliferation assays (optical density of each well) were normalized to the vehicle alone treatment for individual assays, considered to represent 100% proliferating cells (single or combined treatment). The % proliferating cells was then averaged across each replicate. The IC50 for each extract was then calculated across experiments by Probit analysis. The compound interactions were calculated by multiple drug effect analysis using CalcuSyn software (v.2.11; Biosoft, Cambridge, GB, United Kingdom).
For orientation: Tetrazolium dyes change colour on reduction, which living cells bring about.

The next assay relates to CMT-12 cancer cell line. Briefly: MTT proliferation assay. The note with it: Canis lupus familiaris. The protocol: as §3, §4, §5
The test system of the next assay is C2 cancer cell line. Briefly: MTT proliferation assay. The protocol: as §3, §4, §5
The mark [1] stands for this setting: read-out: chemotherapy IC50 (mass concentration in brackets).

Where a name gives a salt, the structure may show the parent alone. Read-outs that look alike come from different tables or passages of the source.

For the compound `COc1cccc2c1C(=O)c1c(O)c3c(c(O)c1C2=O)C[C@@](O)(C(=O)CO)C[C@@H]3O[C@H]1C[C@H](N)[C@H](O)[C@H](C)O1` [doxorubicin hydrochloride], the IC50 in the assay with CF41.Mg cell line came to 375 ± 361 nM; in the assay with HMPOS, 11 nM; in the assay with D17 cancer cell line (read-out: chemotherapy IC50) it was 500 nM; with D17 cancer cell line (setting [1]) it was 0.272 µg/mL; in the assay with CMT-12 cancer cell line (read-out: chemotherapy IC50) it was 300 nM; in the assay on CMT-12 cancer cell line (setting [1]), 0.163 µg/mL.
Consider toceranib phosphate, for which the “chemotherapy IC50 (mass concentration in brackets)” value with C2 cancer cell line is reported as “nM (6.2 ng mL^−1)”. Further, the IC50 with C2 cancer cell line (read-out: chemotherapy IC50) came out at 12.5 nM.
